# Laboratory results published in patent publication US9963445B2, “Chemical compounds” (SYNGENTA PARTICIPATIONS AG, priority 2013, dated 2018).
# Tested on: Alopecurus myosuroides
# Assay: Post-emergence herbicidal activity, glasshouse pot test
# Assay type: in vivo
# Design: key: 0 = no damage to plant, 5 = total damage to plant
# Settings: Application post-emergence, rate 1000 g/ha, evaluated after 13 days
# Description: (§1) Seeds of a variety of test species were sown in standard soil in pots. After 8 days cultivation (post-emergence) under controlled conditions in a glasshouse (at 24/16° C., day/night; 14 hours light; 65% humidity), the plants were sprayed with an aqueous spray solution derived from the formulation of the technical active ingredient in acetone/water (50:50) solution containing 0.5% Tween 20 (polyoxyethelyene sorbitan monolaurate, CAS RN 9005-64-5). The test plants were then grown in a glasshouse under controlled conditions (at 24/16° C., day/night; 14 hours light; 65% humidity) and watered twice daily. After 13 days, the test was evaluated (5=total damage to plant; 0=no damage to plant).
# (§2) ABUTH=Abutilon theophrasti; SOLNI=Solanum nigrum; AMARE=Amaranthus retroflexus; SETFA=Setaria faberi; ALOMY=Alopecurus myosuroides; ECHCG=Echinochloa crus-galli, ZEAMX=zea mays.
row,Compound,ALOMY herbicidal damage score
1,6-(4-chloro-2-hydroxy-3-methyl-5-oxo-2H-pyrrol-1-yl)-4-(trifluoromethyl)pyridine-3-carbonitrile [AF3],5
2,CCO/C=C\c1cnc(N2C(=O)C(Cl)=C(C)C2O)cc1C(F)(F)F (stereo not drawn) [AF1],5
3,CC(C)=C(C)c1cnc(N2C(=O)C(Cl)=C(C)C2O)cc1C(F)(F)F (stereo not drawn) [AF2],4
4,CC1=C(Cl)C(=O)N(c2nccc(C(F)(F)F)c2F)C1O (stereo not drawn) [AF5],5
5,CC(=O)OC1C(C)=C(Cl)C(=O)N1c1cc(C(F)(F)F)ccn1 (stereo not drawn) [AF10],5
6,CSc1ccc(N2C(=O)C(Cl)=C(C)C2OC(C)=O)nc1 (stereo not drawn) [AF19],4
7,CC1=C(Cl)C(=O)N(c2cc(C(C)C)c(C(=O)OC(C)C)cn2)C1O (stereo not drawn) [AF23],4

# Tested on: Echinochloa crus-galli
# Assay: as above
# Assay type: in vivo
# Design: key: 0 = no damage to plant, 5 = total damage to plant
# Settings: Application post-emergence, rate 1000 g/ha, evaluated after 13 days
# Description: as §1, §2
row,Compound,ECHCG herbicidal damage score
1,6-(4-chloro-2-hydroxy-3-methyl-5-oxo-2H-pyrrol-1-yl)-4-(trifluoromethyl)pyridine-3-carbonitrile [AF3],5
2,CCO/C=C\c1cnc(N2C(=O)C(Cl)=C(C)C2O)cc1C(F)(F)F (stereo not drawn) [AF1],5
3,CC(C)=C(C)c1cnc(N2C(=O)C(Cl)=C(C)C2O)cc1C(F)(F)F (stereo not drawn) [AF2],5
4,CC1=C(Cl)C(=O)N(c2nccc(C(F)(F)F)c2F)C1O (stereo not drawn) [AF5],5
5,CC(=O)OC1C(C)=C(Cl)C(=O)N1c1cc(C(F)(F)F)ccn1 (stereo not drawn) [AF10],5
6,CSc1ccc(N2C(=O)C(Cl)=C(C)C2OC(C)=O)nc1 (stereo not drawn) [AF19],3
7,CC1=C(Cl)C(=O)N(c2cc(C(C)C)c(C(=O)OC(C)C)cn2)C1O (stereo not drawn) [AF23],5

# Tested on: Setaria faberi
# Assay: as above
# Assay type: in vivo
# Design: key: 0 = no damage to plant, 5 = total damage to plant
# Settings: Application post-emergence, rate 1000 g/ha, evaluated after 13 days
# Description: as §1, §2
row,Compound,SETFA herbicidal damage score
1,6-(4-chloro-2-hydroxy-3-methyl-5-oxo-2H-pyrrol-1-yl)-4-(trifluoromethyl)pyridine-3-carbonitrile [AF3],5
2,CCO/C=C\c1cnc(N2C(=O)C(Cl)=C(C)C2O)cc1C(F)(F)F (stereo not drawn) [AF1],5
3,CC(C)=C(C)c1cnc(N2C(=O)C(Cl)=C(C)C2O)cc1C(F)(F)F (stereo not drawn) [AF2],5
4,CC1=C(Cl)C(=O)N(c2nccc(C(F)(F)F)c2F)C1O (stereo not drawn) [AF5],5
5,CC(=O)OC1C(C)=C(Cl)C(=O)N1c1cc(C(F)(F)F)ccn1 (stereo not drawn) [AF10],5
6,CSc1ccc(N2C(=O)C(Cl)=C(C)C2OC(C)=O)nc1 (stereo not drawn) [AF19],3
7,CC1=C(Cl)C(=O)N(c2cc(C(C)C)c(C(=O)OC(C)C)cn2)C1O (stereo not drawn) [AF23],4

# Tested on: Amaranthus retroflexus
# Assay: as above
# Assay type: in vivo
# Design: key: 0 = no damage to plant, 5 = total damage to plant
# Settings: Application post-emergence, rate 1000 g/ha, evaluated after 13 days
# Description: as §1, §2
row,Compound,AMARE herbicidal damage score
1,6-(4-chloro-2-hydroxy-3-methyl-5-oxo-2H-pyrrol-1-yl)-4-(trifluoromethyl)pyridine-3-carbonitrile [AF3],5
2,CCO/C=C\c1cnc(N2C(=O)C(Cl)=C(C)C2O)cc1C(F)(F)F (stereo not drawn) [AF1],5
3,CC(C)=C(C)c1cnc(N2C(=O)C(Cl)=C(C)C2O)cc1C(F)(F)F (stereo not drawn) [AF2],5
4,CC1=C(Cl)C(=O)N(c2nccc(C(F)(F)F)c2F)C1O (stereo not drawn) [AF5],5
5,CC(=O)OC1C(C)=C(Cl)C(=O)N1c1cc(C(F)(F)F)ccn1 (stereo not drawn) [AF10],5
6,CSc1ccc(N2C(=O)C(Cl)=C(C)C2OC(C)=O)nc1 (stereo not drawn) [AF19],5
7,CC1=C(Cl)C(=O)N(c2cc(C(C)C)c(C(=O)OC(C)C)cn2)C1O (stereo not drawn) [AF23],5

# Tested on: Abutilon theophrasti
# Assay: as above
# Assay type: in vivo
# Design: key: 0 = no damage to plant, 5 = total damage to plant
# Settings: Application post-emergence, rate 1000 g/ha, evaluated after 13 days
# Description: as §1, §2
row,Compound,ABUTH herbicidal damage score
1,6-(4-chloro-2-hydroxy-3-methyl-5-oxo-2H-pyrrol-1-yl)-4-(trifluoromethyl)pyridine-3-carbonitrile [AF3],5
2,CCO/C=C\c1cnc(N2C(=O)C(Cl)=C(C)C2O)cc1C(F)(F)F (stereo not drawn) [AF1],5
3,CC(C)=C(C)c1cnc(N2C(=O)C(Cl)=C(C)C2O)cc1C(F)(F)F (stereo not drawn) [AF2],5
4,CC1=C(Cl)C(=O)N(c2nccc(C(F)(F)F)c2F)C1O (stereo not drawn) [AF5],5
5,CC(=O)OC1C(C)=C(Cl)C(=O)N1c1cc(C(F)(F)F)ccn1 (stereo not drawn) [AF10],5
6,CSc1ccc(N2C(=O)C(Cl)=C(C)C2OC(C)=O)nc1 (stereo not drawn) [AF19],3
7,CC1=C(Cl)C(=O)N(c2cc(C(C)C)c(C(=O)OC(C)C)cn2)C1O (stereo not drawn) [AF23],4

# Tested on: zea mays
# Assay: as above
# Assay type: in vivo
# Design: key: 0 = no damage to plant, 5 = total damage to plant
# Settings: Application post-emergence, rate 1000 g/ha, evaluated after 13 days
# Description: as §1, §2
row,Compound,ZEAMX herbicidal damage score
1,6-(4-chloro-2-hydroxy-3-methyl-5-oxo-2H-pyrrol-1-yl)-4-(trifluoromethyl)pyridine-3-carbonitrile [AF3],4
2,CCO/C=C\c1cnc(N2C(=O)C(Cl)=C(C)C2O)cc1C(F)(F)F (stereo not drawn) [AF1],2
3,CC(C)=C(C)c1cnc(N2C(=O)C(Cl)=C(C)C2O)cc1C(F)(F)F (stereo not drawn) [AF2],1
4,CC1=C(Cl)C(=O)N(c2nccc(C(F)(F)F)c2F)C1O (stereo not drawn) [AF5],4
5,CC(=O)OC1C(C)=C(Cl)C(=O)N1c1cc(C(F)(F)F)ccn1 (stereo not drawn) [AF10],4
6,CSc1ccc(N2C(=O)C(Cl)=C(C)C2OC(C)=O)nc1 (stereo not drawn) [AF19],1
7,CC1=C(Cl)C(=O)N(c2cc(C(C)C)c(C(=O)OC(C)C)cn2)C1O (stereo not drawn) [AF23],3

# Tested on: Alopecurus myosuroides
# Assay: Pre-emergence herbicidal activity, glasshouse pot test
# Assay type: in vivo
# Settings: pre-emergence spray, rate 1000 g/ha, evaluated after 13 days, scale 0-5
# Description: as §1, with “After” for “After 8 days”, “for one day (pre-emergence)” for “(post-emergence)”
# as §2
row,Compound,"ALOMY damage score, application pre-emergence"
1,6-(4-chloro-2-hydroxy-3-methyl-5-oxo-2H-pyrrol-1-yl)-4-(trifluoromethyl)pyridine-3-carbonitrile [AF3],3
2,CCO/C=C\c1cnc(N2C(=O)C(Cl)=C(C)C2O)cc1C(F)(F)F (stereo not drawn) [AF1],1
3,CC(C)=C(C)c1cnc(N2C(=O)C(Cl)=C(C)C2O)cc1C(F)(F)F (stereo not drawn) [AF2],0
4,CC1=C(Cl)C(=O)N(c2nccc(C(F)(F)F)c2F)C1O (stereo not drawn) [AF5],4
5,CC(=O)OC1C(C)=C(Cl)C(=O)N1c1cc(C(F)(F)F)ccn1 (stereo not drawn) [AF10],3
6,CSc1ccc(N2C(=O)C(Cl)=C(C)C2OC(C)=O)nc1 (stereo not drawn) [AF19],0
7,CC1=C(Cl)C(=O)N(c2cc(C(C)C)c(C(=O)OC(C)C)cn2)C1O (stereo not drawn) [AF23],4

# Tested on: Echinochloa crus-galli
# Assay: as above
# Assay type: in vivo
# Settings: pre-emergence spray, rate 1000 g/ha, evaluated after 13 days, scale 0-5
# Description: as §1, with “After” for “After 8 days”, “for one day (pre-emergence)” for “(post-emergence)”
# as §2
row,Compound,"ECHCG damage score, application pre-emergence"
1,6-(4-chloro-2-hydroxy-3-methyl-5-oxo-2H-pyrrol-1-yl)-4-(trifluoromethyl)pyridine-3-carbonitrile [AF3],4
2,CCO/C=C\c1cnc(N2C(=O)C(Cl)=C(C)C2O)cc1C(F)(F)F (stereo not drawn) [AF1],2
3,CC(C)=C(C)c1cnc(N2C(=O)C(Cl)=C(C)C2O)cc1C(F)(F)F (stereo not drawn) [AF2],3
4,CC1=C(Cl)C(=O)N(c2nccc(C(F)(F)F)c2F)C1O (stereo not drawn) [AF5],4
5,CC(=O)OC1C(C)=C(Cl)C(=O)N1c1cc(C(F)(F)F)ccn1 (stereo not drawn) [AF10],5
6,CSc1ccc(N2C(=O)C(Cl)=C(C)C2OC(C)=O)nc1 (stereo not drawn) [AF19],0
7,CC1=C(Cl)C(=O)N(c2cc(C(C)C)c(C(=O)OC(C)C)cn2)C1O (stereo not drawn) [AF23],5

# Tested on: Setaria faberi
# Assay: as above
# Assay type: in vivo
# Settings: pre-emergence spray, rate 1000 g/ha, evaluated after 13 days, scale 0-5
# Description: as §1, with “After” for “After 8 days”, “for one day (pre-emergence)” for “(post-emergence)”
# as §2
row,Compound,"SETFA damage score, application pre-emergence"
1,6-(4-chloro-2-hydroxy-3-methyl-5-oxo-2H-pyrrol-1-yl)-4-(trifluoromethyl)pyridine-3-carbonitrile [AF3],4
2,CCO/C=C\c1cnc(N2C(=O)C(Cl)=C(C)C2O)cc1C(F)(F)F (stereo not drawn) [AF1],2
3,CC(C)=C(C)c1cnc(N2C(=O)C(Cl)=C(C)C2O)cc1C(F)(F)F (stereo not drawn) [AF2],4
4,CC1=C(Cl)C(=O)N(c2nccc(C(F)(F)F)c2F)C1O (stereo not drawn) [AF5],4
5,CC(=O)OC1C(C)=C(Cl)C(=O)N1c1cc(C(F)(F)F)ccn1 (stereo not drawn) [AF10],4
6,CSc1ccc(N2C(=O)C(Cl)=C(C)C2OC(C)=O)nc1 (stereo not drawn) [AF19],0
7,CC1=C(Cl)C(=O)N(c2cc(C(C)C)c(C(=O)OC(C)C)cn2)C1O (stereo not drawn) [AF23],2

# Tested on: Amaranthus retroflexus
# Assay: as above
# Assay type: in vivo
# Settings: pre-emergence spray, rate 1000 g/ha, evaluated after 13 days, scale 0-5
# Description: as §1, with “After” for “After 8 days”, “for one day (pre-emergence)” for “(post-emergence)”
# as §2
row,Compound,"AMARE damage score, application pre-emergence"
1,6-(4-chloro-2-hydroxy-3-methyl-5-oxo-2H-pyrrol-1-yl)-4-(trifluoromethyl)pyridine-3-carbonitrile [AF3],2
2,CCO/C=C\c1cnc(N2C(=O)C(Cl)=C(C)C2O)cc1C(F)(F)F (stereo not drawn) [AF1],4
3,CC(C)=C(C)c1cnc(N2C(=O)C(Cl)=C(C)C2O)cc1C(F)(F)F (stereo not drawn) [AF2],3
4,CC1=C(Cl)C(=O)N(c2nccc(C(F)(F)F)c2F)C1O (stereo not drawn) [AF5],5
5,CC(=O)OC1C(C)=C(Cl)C(=O)N1c1cc(C(F)(F)F)ccn1 (stereo not drawn) [AF10],5
6,CSc1ccc(N2C(=O)C(Cl)=C(C)C2OC(C)=O)nc1 (stereo not drawn) [AF19],0
7,CC1=C(Cl)C(=O)N(c2cc(C(C)C)c(C(=O)OC(C)C)cn2)C1O (stereo not drawn) [AF23],5

# Tested on: Abutilon theophrasti
# Assay: as above
# Assay type: in vivo
# Settings: pre-emergence spray, rate 1000 g/ha, evaluated after 13 days, scale 0-5
# Description: as §1, with “After” for “After 8 days”, “for one day (pre-emergence)” for “(post-emergence)”
# as §2
row,Compound,"ABUTH damage score, application pre-emergence"
1,6-(4-chloro-2-hydroxy-3-methyl-5-oxo-2H-pyrrol-1-yl)-4-(trifluoromethyl)pyridine-3-carbonitrile [AF3],0
2,CCO/C=C\c1cnc(N2C(=O)C(Cl)=C(C)C2O)cc1C(F)(F)F (stereo not drawn) [AF1],1
3,CC(C)=C(C)c1cnc(N2C(=O)C(Cl)=C(C)C2O)cc1C(F)(F)F (stereo not drawn) [AF2],1
4,CC1=C(Cl)C(=O)N(c2nccc(C(F)(F)F)c2F)C1O (stereo not drawn) [AF5],4
5,CC(=O)OC1C(C)=C(Cl)C(=O)N1c1cc(C(F)(F)F)ccn1 (stereo not drawn) [AF10],5
6,CSc1ccc(N2C(=O)C(Cl)=C(C)C2OC(C)=O)nc1 (stereo not drawn) [AF19],0
7,CC1=C(Cl)C(=O)N(c2cc(C(C)C)c(C(=O)OC(C)C)cn2)C1O (stereo not drawn) [AF23],1

# Tested on: zea mays
# Assay: as above
# Assay type: in vivo
# Settings: pre-emergence spray, rate 1000 g/ha, evaluated after 13 days, scale 0-5
# Description: as §1, with “After” for “After 8 days”, “for one day (pre-emergence)” for “(post-emergence)”
# as §2
row,Compound,"ZEAMX damage score, application pre-emergence"
1,6-(4-chloro-2-hydroxy-3-methyl-5-oxo-2H-pyrrol-1-yl)-4-(trifluoromethyl)pyridine-3-carbonitrile [AF3],2
2,CCO/C=C\c1cnc(N2C(=O)C(Cl)=C(C)C2O)cc1C(F)(F)F (stereo not drawn) [AF1],1
3,CC(C)=C(C)c1cnc(N2C(=O)C(Cl)=C(C)C2O)cc1C(F)(F)F (stereo not drawn) [AF2],0
4,CC1=C(Cl)C(=O)N(c2nccc(C(F)(F)F)c2F)C1O (stereo not drawn) [AF5],4
5,CC(=O)OC1C(C)=C(Cl)C(=O)N1c1cc(C(F)(F)F)ccn1 (stereo not drawn) [AF10],0
6,CSc1ccc(N2C(=O)C(Cl)=C(C)C2OC(C)=O)nc1 (stereo not drawn) [AF19],0
7,CC1=C(Cl)C(=O)N(c2cc(C(C)C)c(C(=O)OC(C)C)cn2)C1O (stereo not drawn) [AF23],1
